Literature values, collected in PMC3983394 (Journal of Medicinal Chemistry, 2014).

Columns and labels:
mice [1] = test system: mice
mice [2] = test system: mice; remark: listed apart in the source
mice [3] = test system: mice; remark: listed apart in the source
mice [4] = test system: mice; remark: listed apart in the source

In the case of `CN1CCC[C@H]1c1cccnc1` [nicotine], the ED50 tail-flick (mice [1]) is listed as 1.3 (0.5–1.8) mg/kg, the ED50 hot-plate (mice [2]) is listed as 0.65 (0.25–0.85) mg/kg and the ED50 hypothermia (mice [3]) is listed as 1.0 (0.6–2.1) mg/kg. The ED50 spontaneous activity (mice [4]) was 0.5 (0.15–0.78) mg/kg.
